Laboratory results published in patent US12171230B2, “Herbicidal compositions” (Bayer Aktiengesellschaft, priority 2018, dated 2024).

Tests used:
Format in all cases: in vivo
[1] = system: Lamium purpureum; test: Post-emergence herbicidal action against Lamium purpureum; details: for Herbicidal action: 1 g a.i./ha
Procedure: When the observed efficacies exceed the formal sum total of the values of the tests with individual applications, they also exceed the expected value according to Colby, which is calculated using the formula below and is likewise regarded as an indication of synergism (cf. S. R. Colby; in Weeds 15 (1967) p. 20 to 22): E^C=A+B−([…])
Here: • A=efficacy of the active compound (A) in % at an application rate of a g a.i./ha; • B=efficacy of the active compound (B) in % at an application rate of b g a.i./ha; • E^C=expected value of the effect of the combination (A)+(B) in % at the combined application rate a+b g a.i./ha.
Seeds or rhizome pieces of mono- and dicotyledonous weeds are placed in sandy loam in pots, covered with soil and grown in a greenhouse under good growth conditions (temperature, air humidity, water supply). Three weeks after sowing, the test plants were treated at the three-leaf stage with the compositions according to the invention. The compositions according to the invention formulated as spray powders or as emulsion concentrates were sprayed onto the green plant parts in various dosages with an application rate of 300 to 800 l/ha of water (equivalent). After the test plants have been left to stand in the greenhouse under optimal growth conditions for about 3 to 4 weeks, the action of the preparations is scored visually in comparison to untreated controls. The compositions according to the invention also have good post-emergence herbicidal activity against a broad spectrum of economically important gramineous and broadleaf weeds.

[2] = system: Poa annua; test: Post-emergence herbicidal action against Poa annua
Outline: (§1)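 Greenhouse pot test: three-leaf-stage plants, three weeks from sowing, sprayed with spray-powder or emulsion-concentrate formulations at several dosages (300 to 800 l/ha water). Efficacy rated visually against untreated plants some 3 to 4 weeks later, with Colby formula giving expected combination effect.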

[3] = system: Centaurea cyano; test: Post-emergence herbicidal action against Centaurea cyano
Outline: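 Greenhouse pot-grown plants sprayed post-emergence at the three-leaf stage, three weeks after sowing, with spray-powder or emulsion-concentrate formulations at various dosages in 300 to 800 l/ha water on green parts.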

[4] = system: Galium aparine; test: Post-emergence herbicidal action against Galium aparine; details: for Herbicidal action: 28 DAT
Outline: as §1

[5] = system: Matricaria inodora; test: Post-emergence herbicidal action against Matricaria inodora; details: for Herbicidal action: 1 g a.i./ha
[6] = system: Lolium rigidum; test: Post-emergence herbicidal action against Lolium rigidum
Source text: (§2) The following abbreviations are used in the description and the tables that follow: • g of a.i./ha=grams of active substance (active ingredient) (=100% active compound) per hectare; • The sum total of the effects of the individual applications is reported under E^A; • expected values according to Colby are each reported under E^C.
(§3) The rating period is reported in days after application (DAT).

[7] = system: Lolium rigidum (resistant biotype); test: Post-emergence herbicidal action against Lolium rigidum (resistant biotype)
[8] = system: Phalaris minor; test: Post-emergence herbicidal action against Phalaris minor
[9] = system: Veronica hederifolia; test: Post-emergence herbicidal action against Veronica hederifolia; details: 0.17 g of a.i./ha
[10] = system: Alopecurus myosuroides; test: Post-emergence herbicidal action against Alopecurus myosuroides
Source text: as §2, §3

[11] = system: Bromus sterilis; test: Post-emergence herbicidal action against Bromus sterilis
Source text: as §2, §3

[12] = system: Lolium rigidum (resistant biotype); test: Post-emergence herbicidal action against Lolium rigidum (resistant biotype); details: (Z119) post-emergence; g of a.i./ha: 1, 270, 1 + 270
Outline: (§4)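 Assessment time was recorded as days after application. Activity for mixtures was set against E^C, the Colby expected value, and against E^A, the total of the effects from each component applied alone; application rates were in g of active substance per hectare.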

[13] = system: Phalaris minor; test: Post-emergence herbicidal action against Phalaris minor; details: (Z119) post-emergence; for Herbicidal action 28 DAT against Phalaris minor: g of a.i./ha: 16, 4, 270, 90, 30, 16 + 270, 16 + 90, 16 + 30, 4 + 270, 4 + 30
Outline: as §4

[14] = system: Bromus sterilis; test: Post-emergence herbicidal action against Bromus sterilis; remark: listed apart in the source
[15] = system: Lolium rigidum; test: Post-emergence herbicidal action against Lolium rigidum; remark: listed apart in the source
[16] = system: Phalaris minor; test: Post-emergence herbicidal action against Phalaris minor; remark: listed apart in the source
[17] = system: Viola tricolor; test: Post-emergence herbicidal action against Viola tricolor; details: (Z119) post-emergence; g of a.i./ha: 16, 270, 16 + 270
Source text: as §2, §3

[18] = system: Viola tricolor; test: as above

## COc1nn(C(=O)NS(=O)(=O)c2c(C(=O)O)csc2C)c(=O)n1C [(B2.68) Thiencarbazone]
[1]; 0.17 g of a.i./ha
  Herbicidal action 28 DAT against Lamium purpureum L.: 35%
[2]; 14 DAT, 0.5 g of a.i./ha
  Herbicidal action against Poa annua L.: 10%
[2]; 14 DAT, 1.5 g of a.i./ha
  Herbicidal action against Poa annua L.: 15%
[2]; 28 DAT, 0.5 g of a.i./ha
  Herbicidal action against Poa annua L.: 0%
[2]; 28 DAT, 1.5 g of a.i./ha
  Herbicidal action against Poa annua L.: 25%
[3]; 0.17 g of a.i./ha
  Herbicidal action 14 DAT against Centaurea cyanus: 0%
  Herbicidal action 28 DAT against Centaurea cyanus: 0%
[3]; 1.5 g of a.i./ha
  Herbicidal action 28 DAT against Centaurea cyanus: 35%
[4]; 0.17 g of a.i./ha
  Herbicidal action 14 DAT against Galium aparine: 60%
  Herbicidal action 28 DAT against Galium aparine: 50%
[5]; 14 DAT, 0.17 g of a.i./ha
  Herbicidal action against Matricaria inodora: 15%
[5]; 14 DAT, 0.5 g of a.i./ha
  Herbicidal action against Matricaria inodora: 50%
[5]; 28 DAT, 0.17 g of a.i./ha
  Herbicidal action against Matricaria inodora: 0%
[6]; 0.5 g of a.i./ha
  Herbicidal action 14 DAT against Lolium rigidum: 60%
  Herbicidal action 28 DAT against Lolium rigidum: 10%
[6]; 1.5 g of a.i./ha
  Herbicidal action 14 DAT against Lolium rigidum: 85%
  Herbicidal action 28 DAT against Lolium rigidum: 50%
[7]; 14 DAT, 0.17 g of a.i./ha
  Herbicidal action against Lolium rigidum (resistant biotype): 0%
[7]; 14 DAT, 0.5 g of a.i./ha
  Herbicidal action against Lolium rigidum (resistant biotype): 0%
[7]; 14 DAT, 1.5 g of a.i./ha
  Herbicidal action against Lolium rigidum (resistant biotype): 0%
[7]; 28 DAT, 0.5 g of a.i./ha
  Herbicidal action against Lolium rigidum (resistant biotype): 10%
[7]; 28 DAT, 1.5 g of a.i./ha
  Herbicidal action against Lolium rigidum (resistant biotype): 20%
[8]; 14 DAT, 0.17 g of a.i./ha
  Herbicidal action against Phalaris minor: 0%
[8]; 14 DAT, 0.5 g of a.i./ha
  Herbicidal action against Phalaris minor: 15%
[8]; 14 DAT, 1.5 g of a.i./ha
  Herbicidal action against Phalaris minor: 10%
[8]; 28 DAT, 0.5 g of a.i./ha
  Herbicidal action against Phalaris minor: 0%
[8]; 28 DAT, 1.5 g of a.i./ha
  Herbicidal action against Phalaris minor: 20%
[9]; 14 DAT
  Herbicidal action against Veronica hederifolia: 70%
[9]; 28 DAT
  Herbicidal action against Veronica hederifolia: 70%
[10]; 0.5 g of a.i./ha
  Herbicidal action 14 DAT against Alopecurus myosuroides: 40%
[10]; 1.5 g of a.i./ha
  Herbicidal action 14 DAT against Alopecurus myosuroides: 35%
  Herbicidal action 28 DAT against Alopecurus myosuroides: 30%
[11]; 0.5 g of a.i./ha
  Herbicidal action 14 DAT against Bromus sterilis: 15%
  Herbicidal action 28 DAT against Bromus sterilis: 15%
[11]; 1.5 g of a.i./ha
  Herbicidal action 14 DAT against Bromus sterilis: 20%
  Herbicidal action 28 DAT against Bromus sterilis: 20%

## C=C[C@]1(C(=O)N[C@@H]2C=C(C(=O)OC)OC2)CC(c2cc(F)cc(F)c2)=NO1 [Compound A5, methyl (3R)-3-[[(5S)-3-(3,5-difluorophenyl)-5-vinyl-4H-isoxazole-5-carbonyl]amino]-2,3-dihydrofuran-5-carboxylate]
[1]; 14 DAT
  Herbicidal action: 60%
[1]; 28 DAT
  Herbicidal action: 40%
[1]; (Z119) post-emergence, g of a.i./ha by row: 16, 30, 16 + 30
  Herbicidal action 14 DAT against Lamium purpureum L.: 80%
[2]; 14 DAT, 1 g a.i./ha
  Herbicidal action: 30%
[2]; 14 DAT, 16 g a.i./ha
  Herbicidal action: 70%
[2]; 28 DAT, 1 g a.i./ha
  Herbicidal action: 20%
[3]; 14 DAT, 1 g a.i./ha
  Herbicidal action: 20%
[3]; 28 DAT, 16 g a.i./ha
  Herbicidal action: 75%
[3]; (Z119) post-emergence, g of a.i./ha: 16, 270, 90, 30, 16 + 270, 16 + 90, 16 + 30
  Herbicidal action 28 DAT against Centaurea cyanus: 75%
[4]; 1 g a.i./ha
  Herbicidal action: 50%
[4]; 16 g a.i./ha
  Herbicidal action: 70%
[4]; (Z119) post-emergence, g of a.i./ha by row: 1, 30, 1 + 30
  Herbicidal action 14 DAT against Galium aparine: 60%
[5]; 14 DAT
  Herbicidal action: 30%
[5]; 28 DAT
  Herbicidal action: 10%
[6]; (Z119) post-emergence, g of a.i./ha: 16, 4, 1, 270, 90, 30, 16 + 270, 16 + 90, 16 + 30, 4 + 270, 4 + 90, 4 + 30, 1 + 270, 1 g of a.i./ha
  Herbicidal action 28 DAT against Lolium rigidum: 30%
[6]; (Z119) post-emergence, g of a.i./ha: 16, 4, 1, 270, 90, 30, 16 + 270, 16 + 90, 16 + 30, 4 + 270, 4 + 90, 4 + 30, 1 + 270, 4 g of a.i./ha
  Herbicidal action 28 DAT against Lolium rigidum: 50%
[6]; (Z119) post-emergence, g of a.i./ha: 16, 4, 1, 270, 90, 30, 16 + 270, 16 + 90, 16 + 30, 4 + 270, 4 + 90, 4 + 30, 1 + 270, 16 g of a.i./ha
  Herbicidal action 28 DAT against Lolium rigidum: 60%
[12]
  Herbicidal action 28 DAT against Lolium rigidum (resistant biotype): 20%
[13]; 4 g of a.i./ha
  Herbicidal action 28 DAT against Phalaris minor: 60%
[13]; 16 g of a.i./ha
  Herbicidal action 28 DAT against Phalaris minor: 70%
[13]; g of a.i./ha: 16, 4, 270, 90, 270, 16 + 270, 16 + 90, 4 + 270
  Herbicidal action 14 DAT against Phalaris minor: 85%
[10]; (Z119) post-emergence, g of a.i./ha: 16, 1, 270, 16 + 270, 1 + 270, 1 g of a.i./ha
  Herbicidal action 14 DAT against Alopecurus myosuroides: 50%
[10]; (Z119) post-emergence, g of a.i./ha: 16, 1, 270, 16 + 270, 1 + 270, 16 g of a.i./ha
  Herbicidal action 14 DAT against Alopecurus myosuroides: 85%
[14]; 14 DAT, 4 g a.i./ha
  Herbicidal action: 75%
[14]; 14 DAT, 16 g a.i./ha
  Herbicidal action: 80%
[14]; 28 DAT, 1 g a.i./ha
  Herbicidal action: 30%
[11]; (Z119) post-emergence, g of a.i./ha: 1, 270, 1 + 270
  Herbicidal action 28 DAT against Bromus sterilis: 30%
[11]; (Z119) post-emergence, g of a.i./ha: 1, 270, 90, 1 + 270, 1 + 90
  Herbicidal action 14 DAT against Bromus sterilis: 50%
[15]; 14 DAT, 1 g a.i./ha
  Herbicidal action: 30%
[15]; 14 DAT, resistant biotype, 1 g a.i./ha
  Herbicidal action: 30%
[15]; 14 DAT, resistant biotype, 16 g a.i./ha
  Herbicidal action: 70%
[15]; 28 DAT, 1 g a.i./ha
  Herbicidal action: 30%
[15]; 28 DAT, 16 g a.i./ha
  Herbicidal action: 60%
[15]; 28 DAT, resistant biotype, 1 g a.i./ha
  Herbicidal action: 20%
[16]; 14 DAT, 1 g a.i./ha
  Herbicidal action: 60%
[16]; 14 DAT, 16 g a.i./ha
  Herbicidal action: 85%
[16]; 28 DAT, 1 g a.i./ha
  Herbicidal action: 30%
[16]; 28 DAT, 16 g a.i./ha
  Herbicidal action: 70%
[17]
  Herbicidal action 14 DAT against Viola tricolor: 60%
[18]; 14 DAT, 16 g a.i./ha
  Herbicidal action: 60%
[18]; 28 DAT, 4 g a.i./ha
  Herbicidal action: 40%
[18]; 28 DAT, 16 g a.i./ha
  Herbicidal action: 40%
